# Experimental data as given in patent US20050148553A1, “Use of tigecycline, alone, or in combination with rifampin to treat osteomyelitis and/or septic arthritis” (priority 2003, published 2005).
# Several values for one entry are separate records, joined by “and”; a condition that tells them apart may be missing. Equal values may be shown once. Read-outs that look alike come from different tables or passages of the source.
# How the values were obtained:
# Acinetobacter baumannii = test: Compassionate use study, osteomyelitis patient; assay type: in vivo, human; conditions: one human patient
# Experimental: The patient was treated with meropenem and tobramycin. […] The patient was then treated with tigecycline for two months with either 50 mg every 12 hours or 50 mg every 24 hours.
# [1] = Antibiotic levels in rabbit serum and bone by diffusion bioassay; assay type: in vivo, New Zealand white rabbits; conditions: infected rabbits; tigecycline 14 mg/kg, vancomycin 30 mg/kg twice daily
# Experimental: Normal NZW rabbit serum (Fisher Scientific) and normal, uninfected rabbit tibia bone were used to generate standard curves for tigecycline (Wyeth-Ayerst Research, Pearl River, N.Y.), vancomycin (Abbott Laboratories, Chicago, Ill.), and rifampin (Merrell Pharmaceuticals Inc. Kansas, Mo.). Bioassays were performed with each drug to generate the standard curves for antibiotic concentration in serum and/or tibial bone.
# The organism used for the bioassay was Bacillus cereus ATCC11778. Serum standards were prepared using two-fold serial dilutions with either antibiotic to yield concentrations of 25 μg/ml to 0.20 μg/ml drug in Normal NZW rabbit serum. Bone eluate standards were prepared for tigecycline by thoroughly cleaning noninfected rabbit tibias with 70% ethanol in a sterilized fume hood. Each tibia was broken into small chips of approximately 0.5 cm^2 using a grinder. The chips were placed into a sterile, 50 ml conical centrifuge tube and weighed. One milliliter of sterile, 0.9% normal saline was added for each gram of bone chips. The solution was thoroughly vortexed for two minutes. The resulting bone eluate was allowed to shake at 180 rpm in a cold room at 4° C., for 12 hours. The samples were centrifuged at 4000 rpm for 3 minutes prior to assay, to pellet the chips.
# The diameter of the zone of growth inhibition around each well was measured, in millimeters. A standard curve was generated for tigecycline concentration in both serum and bone eluate and for vancomycin in serum by plotting the known antibiotic concentration against its resulting zone of inhibition measurement. […]
# Serum samples were stored at −70° C. until the bioassay was performed. […] The diameter of the zone of growth inhibition around each well was measured and concentrations of tigecycline were extrapolated from the standard curve.
# Peak and trough levels of antibiotic were determined for Groups 2 and 4 at 1 hour (peak) and 12 hour (trough) after the initial antibiotic administration. Antibiotic concentrations were determined by means of a bioassay. […]
# [2] = tested on: methicillin-resistant S. aureus
# Experimental: Preparation of the Infective Media: S. aureus was incubated overnight in Mueller Hinton Broth (Difco Laboratories, Detroit, Mich.) medium spiked with 40 μg/ml oxacillin, at 37° C. The bacterial concentration of the culture was adjusted to 10^7 CFU's/ml.
# Rabbit Infection Procedure: New Zealand white rabbits (Ray Nicholl's Rabbitry, Lumberton, Tex.), eight to 12 weeks old and weighing 2.0 to 3.5 kg, were utilized for the study. After anesthesia was given, an 18-gauge needle was inserted percutaneously through the lateral aspect of the left tibial metaphysis into the intramedullary cavity. Next, 0.15 ml of 5% sodium morrhuate (American Regent Laboratories, Inc., Shirley, N.Y.), 0.1 ml of S. aureus (10^7 CFU/ml), and 0.2 ml of sterile, normal saline, 0.9%, were injected sequentially.
# Group 1 (control group): infected but left untreated for the duration of the study. Group 2: rabbits were treated for 4 weeks with subcutaneous vancomycin at 30 mg/kg twice daily. Group 3: rabbits were treated for 4 weeks with subcutaneous vancomycin at 30 mg/kg twice daily plus oral rifampin at 40 mg/kg twice daily in 0.5% methylcellulose. Group 4: rabbits were treated for 4 weeks with subcutaneous tigecycline at 14 mg/kg twice daily. Group 5: rabbits were treated for 4 weeks with subcutaneous tigecycline at the same dose as in the rabbits in Group 4, plus oral rifampin at 40 mg/kg twice daily in 0.5% methylcellulose. […] Group 6: rabbits were treated for 1 week with subcutaneous tigecycline at the same dose as in Group 4, but were sacrificed 3 hours after administration of the last dose. At that time, blood and infected bone samples were collected and tigecycline concentration was determined. Groups 1 to 5 were left untreated for 2 weeks after treatment phase of the experiment and sacrificed at 8 weeks after infection.
# Radiographs of bilateral tibias were taken at initiation of therapy (2 weeks after infection), at the end of antibiotic therapy (6 weeks after infection), and at sacrifice (8 weeks after infection). Radiographs were scored according to a visual scale (Table 1) by three investigators, each blinded to the treatment group, and the grades were averaged.
# After sacrifice, gross cultures were performed for right and left tibias. Quantitative counts of S. aureus, in CFUs per gram, of left tibial bone and marrow were determined for all study groups.
# Culture Preparation: The bone marrow and the intramedullary canal of bilateral tibias were swabbed with sterile cotton tip applicators for gross cultures analysis of left tibias and quality assurance checks of right tibias. The inoculated applicator was streaked onto blood plates and then placed into 5 ml of sterile TSB. The plates and tubes were then incubated at 37° C. for 24 hours and growth and/or turbidity was recorded.
# The bone marrow was placed into a sterile, 50 ml centrifuge tube and weighed. The bone fragments were broken into 0.5 cm^2 chips, placed into a sterile, 50 ml centrifuge tube, and the final product weighed. Normal sterile saline, 0.9%, was added in a 3 to 1 ratio (3 ml saline/gram of bone or marrow) and the suspensions were vortexed for 2 minutes. Six ten-fold dilutions of each suspension were prepared with sterile, normal saline, 0.9%. Twenty-microliter samples of each dilution, including the initial suspension, was plated, in triplicate, onto blood agar plates and incubated at 37° C. for 24 hours. CFUs were counted at the greatest dilution for each tibia sample.
# [3] = tested on: methicillin-resistant S. aureus; test: microbe, parasite or virus in culture; assay type: cell-based, Staphylococcus aureus; conditions: for MBC / MIC: Staphylococcus aureus; for MBC: read-out: minimum bactericidal concentration (MBC); for MIC: read-out: minimum inhibitory concentration (MIC)
# Experimental: The minimum inhibitory concentrations (MIC) of tigecycline, vancomycin and rifampin were determined using an antibiotic two-fold tube-dilution method. The minimum bactericidal concentrations were also determined. The limits of sensitivity of this method were 25 μg/ml to 0.20 μg/ml.
# [4] = Adverse events and weight variance in infected treated rabbits; conditions: infected rabbits after antibiotic treatment
# Description: All rabbits were monitored weekly for weight variance. […] The key for FIGS. 4A and B is as follows: Control=control group, no treatment; Vancomycin=subcutaneous vancomycin treated group; Vanco+Rifampin=subcutaneous vancomycin with oral rifampin treated group; Gar-936=subcutaneous Gar-936 treated group; Gar-936+Rifampin=subcutaneous Gar-936 with oral Rifampin treated group.
# Mycobacterium abscessus = assay type: in vivo, human; conditions: human, in vivo
# Experimental: Debridement was accomplished after one year of infection with placement of hardware. […] The amikacin was later stopped due to renal damage. Linezolid and azithromycin were later added to the treatment regimen. The organism was determined to be resistant to moxifloxacin.
# The patient presented later with a new vertebral osteomyelitis just above the site of the old infection. A biopsy was performed and it was determined that no additional debridement was needed. […] Tigecycline was administered up to MIC 0.25 micrograms/ml. The patient's white blood cell count was normal while hypogammaglobulinemia was present and lymphocytic function decreased. The patient had also been under treatment with IL-12, but IL-12 was held during antibiotic treatment.
# M. abcessus = test: Susceptibility/MIC of patient isolate, compassionate use study; assay type: cell-based, Mycobacterium abscessus; conditions: M. abscessus patient isolate
# A. baumanii = test: Susceptibility of patient isolate; assay type: cell-based, Acinetobacter baumannii; conditions: A. baumanii from patient bone
# [5] = average grade, t=14 versus t=56 days
# [6] = individual rabbits, left tibia, 8 weeks after infection
compound,measurement,setting,value
C[C@H]1[C@H](NC(=O)/C(=N\OC(C)(C)C(=O)O)c2csc(N)n2)C(=O)N1S(=O)(=O)O [Aztreonam],adverse event leading to discontinuation,Acinetobacter baumannii,persistent eosinophilia
C[C@@H](O)[C@H]1C(=O)N2C(C(=O)O)=C(S[C@@H]3CN[C@H](C(=O)N(C)C)C3)[C@H](C)[C@H]12 [Meropenem],adverse event leading to discontinuation,Acinetobacter baumannii,eosinophilia
CN[C@H](CC(C)C)C(=O)N[C@H]1C(=O)N[C@@H](CC(N)=O)C(=O)N[C@H]2C(=O)N[C@H]3C(=O)N[C@H](C(=O)N[C@H](C(=O)O)c4cc(O)cc(O)c4-c4cc3ccc4O)[C@H](O)c3ccc(c(Cl)c3)Oc3cc2cc(c3O[C@@H]2O[C@H](CO)[C@@H](O)[C@H](O)[C@H]2O[C@H]2C[C@](C)(N)[C@H](O)[C@H](C)O2)Oc2ccc(cc2Cl)[C@H]1O [Vancomycin],antibiotic serum levels (peaks and troughs),[1],above minimum inhibitory concentrations
same,radiographic improvement (grade),[2]; [5],0.5+/−0.2
same,radiographic improvement (percent),[2]; [5],25%
same,percentage of bone samples positive for MRSA,[2]; bone cultures,18.2%
same,rabbits/samples positive for MRSA in bone,[2]; bone cultures at sacrifice,2 out of 11
same,proportion of positive cultures in marrow,[2]; compared with 0.33 (5/15) in control group,not statistically significantly different from the control group
same,Counts (CFU/gm) Bone,[2]; [6],270.3 CFU/gm and 1315.8 CFU/gm and 0 CFU/gm (14×)
same,Counts (CFU/gm) Marrow,[2]; [6],1250 CFU/gm and 0 CFU/gm (15×)
same,average bacterial concentration of the group,[2]; tibia bone,1.4×10^2 CFU/gram bone
same,MIC/MBC ratio,[3]; MRSA study strain,0.5
same,MBC,[3]; MRSA,0.78 µg/mL
same,MIC,[3]; MRSA,0.39 µg/mL
same,mean weight gain,[4],0.39 kg
"NCC[C@H](O)C(=O)N[C@@H]1C[C@H](N)[C@@H](O[C@H]2O[C@H](CN)[C@@H](O)[C@H](O)[C@H]2O)[C@H](O)[C@H]1O[C@H]1O[C@H](CO)[C@@H](O)[C@H](N)[C@H]1O [amikacin, reference compound]",adverse event leading to discontinuation,Mycobacterium abscessus,renal damage
"CO[C@@]1(NC(=O)Cc2cccs2)C(=O)N2C(C(=O)O)=C(COC(N)=O)CS[C@@H]21 [cefoxitin, reference compound]",susceptibility of the organism,M. abcessus,sensitive
O=C(O)c1cn(C2CC2)c2cc(N3CCNCC3)c(F)cc2c1=O [ciprofloxacin],susceptibility of the organism,A. baumanii,resistant
CO[C@H]1/C=C/O[C@@]2(C)Oc3c(C)c(O)c4c(O)c(c(/C=N/N5CCN(C)CC5)c(O)c4c3C2=O)NC(=O)/C(C)=C\C=C\[C@H](C)[C@H](O)[C@@H](C)[C@@H](O)[C@@H](C)[C@H](OC(C)=O)[C@@H]1C [rifampin],"bacterial outcome in bone and marrow, in words","[2]; end of study, MRSA infected rabbits",bactericidal activity
same,MIC/MBC ratio,[3]; MRSA study strain,0.5
same,MIC,"[3]; MRSA, MRSA study strain, inoculum 10^6 CFU/ml",0.78 µg/mL
same,MBC,"[3]; MRSA study strain, inoculum 10^6 CFU/ml",1.56 µg/mL
NC[C@H]1O[C@H](O[C@H]2[C@H](O)[C@@H](O[C@H]3O[C@H](CO)[C@@H](O)[C@H](N)[C@H]3O)[C@H](N)C[C@@H]2N)[C@H](N)C[C@@H]1O [tobramycin],adverse event leading to discontinuation,Acinetobacter baumannii,increased creatinine
same,susceptibility of the organism,A. baumanii,susceptible
gentamicin,susceptibility of the organism,A. baumanii,susceptible
